Earlier results as cited in US20090252806A1, “NANOPARTICULATE TACROLIMUS FORMULATIONS” (Elan Pharma International Ltd., priority 2004, published 2009).
Like-named read-outs stand apart in the source and are kept apart here.

Legend:
[1] = oral
[2] = 18 fasted healthy volunteers; single oral dose of 3 mg, 7 mg, and 10 mg
[3] = for reduction of mean AUC relative to the fasted condition / reduction of mean Cmax relative to the fasted condition: healthy volunteers (N=16)
[4] = U.S. study; average (range)
[5] = 15 minutes after a high fat (400 kcal, 34% fat) breakfast, 11 liver transplant patients
[6] = administered 1.5 hours following the meal
[7] = given immediately following the meal

C=CC[C@@H]1/C=C(\C)C[C@H](C)C[C@H](OC)[C@H]2O[C@@](O)(C(=O)C(=O)N3CCCC[C@H]3C(=O)O[C@H](/C(C)=C/[C@@H]3CC[C@@H](O)[C@H](OC)C3)[C@H](C)[C@@H](O)CC1=O)[C@H](C)C[C@@H]2OC [tacrolimus, Tacrolimus]
absolute bioavailability ([1]; adult kidney transplant patients (N=26)): 17±10%
absolute bioavailability ([1]; adult liver transplant patients (N=17)): 22±6%
increase of Cmax and AUC with dose [2]: dose-proportional
decreased AUC as compared to a fasted state [3, 5]: 27±18%
decreased Cmax as compared to a fasted state [3, 5]: 50±19%
reduction of mean AUC relative to the fasted condition [3, 6]: 39%
reduction of mean Cmax relative to the fasted condition [3, 6]: 63%
reduction of mean AUC relative to the fasted condition [3, 7]: 39%
reduction of mean Cmax relative to the fasted condition [3, 7]: 71%
lengthening of Tmax ([3]; high-fat meal (848 kcal, 46% fat), 15 healthy volunteers): 5 fold
solubility (in chloroform): very soluble
solubility (in ethanol): freely soluble
solubility (in methanol): very soluble
solubility (in water): practically insoluble
ratio of whole blood concentration to plasma concentration [4]: 35 (range 12 to 67)
